Reference: patent US20230041563A1, “N-(1,3,4-OXADIAZOL-2-YL)ARYLCARBOXAMIDES OR SALTS THEREOF, PREPARATION METHODS, HERBICIDAL COMPOSITIONS AND USES THEREOF” (priority 2018, published 2023)

Assays:
Format in all cases: in vivo
Echinochloa crusgalli = assay: Weeding effect in post-emergence stage (greenhouse pot spray)
Outline: (§1)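 Read-out: fresh-weight growth control rate scored 3 weeks after spraying, mean of three replicates. Plants treated at 2-3 leaf stage by spray tower, doses 500-15 g a.i./ha (500, 250, 125, 60, 15).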

Setaria viridis = assay: as above; details: Table 3, dose 60 g a.i./ha
Outline: as §1

Digitaria sanguinalis = assay: as above; details: for Digitaria sanguinahs (activity level): Table 3, dose 60 g a.i./ha
Outline: as §1

Abutilon theophrasti = assay: as above; details: for Abutilon theophrasti (activity level): Table 3, dose 60 g a.i./ha
Outline: as §1

[1] = test system: Indica rice (Huanghuazhan); assay: Safety test of control experiments on rice; details: Dose 250 g a.i./ha
Source text: (§2) The activity level criteria for plant damage (i.e., growth control rate) are as follows: Comparative Experiments: [table]

[2] = test system: Japonica rice (Huaidao No. 5); assay: Safety test of control experiments on rice; details: Dose 250 g a.i./ha
Source text: as §2

Amaranthus retroflexus = assay: Weeding effect in post-emergence stage (greenhouse pot spray)
Outline: as §1

Stellaria media = assay: as above
Outline: as §1

[3] = test system: rice and Echinochloa crusgali; assay: Herbicide selection index between rice and Echinochloa crusgali; details: average dose causing 10% phytotoxicity to rice divided by average dose causing 90% control efficiency to Echinochloa crusgali

Cc1nnc(NC(=O)c2ccc(C(F)(F)F)c([S+]([O-])CC(C)C)c2F)o1 (racemic) [Compound 1-20]
Echinochloa crusgah (activity level) (Echinochloa crusgalli; Table 2, dose 250 g a.i./ha): 5 (Level 5: growth control rate is above 85%)
Setaria viridis (activity level) (Setaria viridis): 5 (Level 5: growth control rate is above 85%)
Digitaria sanguinalis (activity level) (Digitaria sanguinalis; Table 2, dose 250 g a.i./ha): 5 (Level 5: growth control rate is above 85%)
Digitaria sanguinahs (activity level) (Digitaria sanguinalis): 5 (Level 5: growth control rate is above 85%)
Abutilion theophrasti (activity level) (Abutilon theophrasti; Table 2, dose 250 g a.i./ha): 5 (Level 5: growth control rate is above 85%)
Abutilon theophrasti (activity level) (Abutilon theophrasti): 5 (Level 5: growth control rate is above 85%)
Indica rice (Huanghuazhan) (plant damage level) [1]: 0 (Level 0: growth control rate is less than 5%)
Japonica rice (Huaidao No. 5) (plant damage level) [2]: 0 (Level 0: growth control rate is less than 5%)
Amaranthus retroflexus (activity level) (Amaranthus retroflexus; Table 2, dose 250 g a.i./ha): 5 (Level 5: growth control rate is above 85%)
Stellaria media (activity level) (Stellaria media; Table 2, dose 250 g a.i./ha): 5 (Level 5: growth control rate is above 85%)
Selection index between rice and Echinochloa crusgali [3]: >5

Cc1nnc(NC(=O)c2ccc(C(F)(F)F)c([S+]([O-])CCC(F)(F)F)c2F)o1 (racemic) [Compound 1-52]
Echinochloa crusgah (activity level) (Echinochloa crusgalli; Table 2, dose 500 g a.i./ha): 5 (Level 5: growth control rate is above 85%)
Setaria viridis (activity level) (Setaria viridis): 5 (Level 5: growth control rate is above 85%)
Digitaria sanguinalis (activity level) (Digitaria sanguinalis; Table 2, dose 500 g a.i./ha): 5 (Level 5: growth control rate is above 85%)
Digitaria sanguinahs (activity level) (Digitaria sanguinalis): 5 (Level 5: growth control rate is above 85%)
Abutilion theophrasti (activity level) (Abutilon theophrasti; Table 2, dose 500 g a.i./ha): 5 (Level 5: growth control rate is above 85%)
Abutilon theophrasti (activity level) (Abutilon theophrasti): 5 (Level 5: growth control rate is above 85%)
Indica rice (Huanghuazhan) (plant damage level) [1]: 0 (Level 0: growth control rate is less than 5%)
Japonica rice (Huaidao No. 5) (plant damage level) [2]: 0 (Level 0: growth control rate is less than 5%)
Amaranthus retroflexus (activity level) (Amaranthus retroflexus; Table 2, dose 500 g a.i./ha): 5 (Level 5: growth control rate is above 85%)
Stellaria media (activity level) (Stellaria media; Table 2, dose 500 g a.i./ha): 5 (Level 5: growth control rate is above 85%)
Selection index between rice and Echinochloa crusgali [3]: >5

CCCCSc1c(C(F)(F)F)ccc(C(=O)Nc2nnc(C)o2)c1F [Compound 1-13]
Echinochloa crusgah (activity level) (Echinochloa crusgalli; Table 2, dose 250 g a.i./ha): 5 (Level 5: growth control rate is above 85%)
Digitaria sanguinalis (activity level) (Digitaria sanguinalis; Table 2, dose 250 g a.i./ha): 5 (Level 5: growth control rate is above 85%)
Abutilion theophrasti (activity level) (Abutilon theophrasti; Table 2, dose 250 g a.i./ha): 5 (Level 5: growth control rate is above 85%)
Indica rice (Huanghuazhan) (plant damage level) [1]: 0 (Level 0: growth control rate is less than 5%)
Japonica rice (Huaidao No. 5) (plant damage level) [2]: 0 (Level 0: growth control rate is less than 5%)
Amaranthus retroflexus (activity level) (Amaranthus retroflexus; Table 2, dose 250 g a.i./ha): 5 (Level 5: growth control rate is above 85%)
Stellaria media (activity level) (Stellaria media; Table 2, dose 250 g a.i./ha): 5 (Level 5: growth control rate is above 85%)
Selection index between rice and Echinochloa crusgali [3]: >5

Cc1nnc(NC(=O)c2ccc(C(F)(F)F)c([S+]([O-])C3COC3)c2F)o1 (centres unmarked) [Compound 1-82]
Echinochloa crusgah (activity level) (Echinochloa crusgalli; Table 2, dose 500 g a.i./ha): 5 (Level 5: growth control rate is above 85%)
Digitaria sanguinalis (activity level) (Digitaria sanguinalis; Table 2, dose 500 g a.i./ha): 5 (Level 5: growth control rate is above 85%)
Abutilion theophrasti (activity level) (Abutilon theophrasti; Table 2, dose 500 g a.i./ha): 5 (Level 5: growth control rate is above 85%)
Indica rice (Huanghuazhan) (plant damage level) [1]: 0 (Level 0: growth control rate is less than 5%)
Japonica rice (Huaidao No. 5) (plant damage level) [2]: 0 (Level 0: growth control rate is less than 5%)
Amaranthus retroflexus (activity level) (Amaranthus retroflexus; Table 2, dose 500 g a.i./ha): 5 (Level 5: growth control rate is above 85%)
Stellaria media (activity level) (Stellaria media; Table 2, dose 500 g a.i./ha): 5 (Level 5: growth control rate is above 85%)
Selection index between rice and Echinochloa crusgali [3]: >5
